The text below walks through data of US20220226337A1 (Gilead Sciences, Inc., priority 2018, published 2022).

Structures are written as SMILES.

One may read the EC50 as the midpoint of the concentration-response curve.

This assay deals with T1, α4β7 integrin interaction with MadCAM-1 (RPMI8866 cells) (Homo sapiens, UniProt P13612+P26010).
T1 construct: α4β7 integrin expressing cells; endogenous in cells; host or cells: RPMI8866 cells
T1 sequence (P13612 34-1032): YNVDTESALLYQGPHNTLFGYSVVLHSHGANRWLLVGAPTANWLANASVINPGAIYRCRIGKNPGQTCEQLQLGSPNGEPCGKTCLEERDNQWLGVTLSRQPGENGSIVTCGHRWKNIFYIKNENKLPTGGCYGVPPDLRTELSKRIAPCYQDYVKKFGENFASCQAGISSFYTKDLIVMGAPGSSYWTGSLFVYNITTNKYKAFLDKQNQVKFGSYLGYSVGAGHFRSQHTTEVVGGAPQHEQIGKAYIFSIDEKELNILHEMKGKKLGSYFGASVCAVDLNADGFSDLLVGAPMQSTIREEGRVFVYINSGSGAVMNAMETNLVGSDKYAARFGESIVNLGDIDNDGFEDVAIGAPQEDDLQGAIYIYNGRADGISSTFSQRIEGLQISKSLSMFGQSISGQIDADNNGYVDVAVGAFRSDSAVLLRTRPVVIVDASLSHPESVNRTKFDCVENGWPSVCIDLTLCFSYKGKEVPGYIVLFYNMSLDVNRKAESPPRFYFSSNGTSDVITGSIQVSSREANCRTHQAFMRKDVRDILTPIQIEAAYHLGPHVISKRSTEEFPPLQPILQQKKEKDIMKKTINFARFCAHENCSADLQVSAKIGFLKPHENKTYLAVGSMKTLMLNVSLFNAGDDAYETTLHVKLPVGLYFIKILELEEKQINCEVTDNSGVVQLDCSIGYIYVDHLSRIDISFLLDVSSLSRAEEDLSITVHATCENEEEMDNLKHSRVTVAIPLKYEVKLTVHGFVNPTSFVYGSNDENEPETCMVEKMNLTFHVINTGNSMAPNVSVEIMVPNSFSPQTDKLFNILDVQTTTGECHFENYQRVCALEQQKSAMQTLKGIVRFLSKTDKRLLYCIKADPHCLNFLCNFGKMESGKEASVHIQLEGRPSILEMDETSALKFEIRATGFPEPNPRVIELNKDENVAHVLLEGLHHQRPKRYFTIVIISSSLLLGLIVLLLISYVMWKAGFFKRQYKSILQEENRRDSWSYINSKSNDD
T1 sequence (P26010 20-798): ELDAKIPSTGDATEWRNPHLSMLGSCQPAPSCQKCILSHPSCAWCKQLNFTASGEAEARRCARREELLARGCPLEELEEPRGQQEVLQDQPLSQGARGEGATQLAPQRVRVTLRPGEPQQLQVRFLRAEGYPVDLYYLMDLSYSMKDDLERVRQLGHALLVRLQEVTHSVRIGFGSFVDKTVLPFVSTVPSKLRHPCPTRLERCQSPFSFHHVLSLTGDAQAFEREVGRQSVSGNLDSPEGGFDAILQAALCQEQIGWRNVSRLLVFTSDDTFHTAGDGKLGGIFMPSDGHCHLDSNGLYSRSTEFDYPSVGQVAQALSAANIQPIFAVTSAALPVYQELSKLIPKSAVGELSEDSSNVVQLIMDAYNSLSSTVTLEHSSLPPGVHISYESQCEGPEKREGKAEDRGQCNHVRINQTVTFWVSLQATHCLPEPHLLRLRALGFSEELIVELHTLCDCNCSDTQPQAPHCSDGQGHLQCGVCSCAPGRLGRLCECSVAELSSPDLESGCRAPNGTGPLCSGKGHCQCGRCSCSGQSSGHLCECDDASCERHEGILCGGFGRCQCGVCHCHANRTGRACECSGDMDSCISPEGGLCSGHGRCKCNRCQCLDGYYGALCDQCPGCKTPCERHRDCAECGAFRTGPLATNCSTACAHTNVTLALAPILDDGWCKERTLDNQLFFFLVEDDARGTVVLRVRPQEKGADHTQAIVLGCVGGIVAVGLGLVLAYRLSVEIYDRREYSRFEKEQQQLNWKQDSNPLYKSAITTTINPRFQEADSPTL
The assay can be described thus: α4β7 Integrin Cell Capture Assay. The settings on record: capture of α4β7 integrin expressing RPMI8866 cells on recombinant MadCAM-1 extracellular domain-coated plate; 0.5 mM MnCl2. It counts as cell-based. As for the experimental part: The potency of inhibitors in preventing α4β7 integrin interaction with MadCAM-1 was measured by monitoring the capture of α4β7 integrin expressing cells on a recombinant MadCAM-1 extracellular domain-coated plate. 384-well plates (Corning 3702) were coated with MadCAM-1 extracellular domain by dispensing 20 μL of MAdCAM-1 at 1.0 μg/mL per well and incubating overnight at 4° C. The plates were then washed with PBS and blocked with 3% BSA for 2 hours before being washed again. RPMI8866 cells were spun down and re-suspended in assay medium (DMEM+0.5% FBS+0.5 mM MnCl2) at a density of 0.5×10^6 cells/mL. The cells were then dispensed (60 μL/well) to a 384-well plate (Greiner 781280) that was previously spotted with 60 nL of test compound per well. The plates were incubated at 37° C. for 1 hour. 50 μL of cells were transferred to the blocked, MadCAM-1-coated plates and incubated for 30 minutes at 37° C. 10 μL of 12% glutaraldehyde containing Hoechst 33342 (0.06 mg/mL) was added to the cells (2% glutaraldehyde and 0.01 mg/mL final concentrations). The plates were incubated for 90 minutes at room temperature. The plates were then washed 3 times with 70 μL of PBS per well and imaged on a Cellomics ArrayScan instrument. The cells that were bound to the plate were counted and plotted against the compound concentration to determine the EC50 of the test compounds.
As for `Cc1c(-c2ccc(C[C@H](NC(=O)c3c(Cl)cccc3Cl)C(=O)O)c3c2OCCC3)c(=O)n(C)c2ccccc12` (single isomer, unassigned) [Example 62], the EC50 worked out at 3.3 nM.
As for `COCN(C(=O)c1c(F)cc(N2CCOC[C@@H]2C(F)(F)F)cc1F)[C@@H](Cc1ccc(-c2nc(C)c(C)n(C)c2=O)c2c1CCCO2)C(=O)O` [Example 116], the EC50 came out at 19 nM.
Then `CC[C@@H](Nc1cc(F)c(C(=O)N[C@@H](Cc2ccc(-c3c(C)nc(C)n(C)c3=O)c3c2CCCO3)C(=O)O)c(F)c1F)C(F)(F)F` [Example 126], with 0.379 nM; and `O=C(N[C@@H](Cc1ccc(-c2ncc3ccccc3c2C(F)(F)F)c2c1OCCO2)C(=O)O)c1c(F)cccc1F` [Example 12, (S)-2-(2,6-difluorobenzamido)-3-(8-(4-(trifluoromethyl)isoquinolin-3-yl)-2,3-dihydrobenzo[b][1,4]dioxin-5-yl)propanoic acid], with 13.9 nM.
Then `COc1ccc(C)nc1-c1ccc(C[C@H](NC(=O)c2c(F)cc(N3CCOC[C@@H]3C(F)(F)F)cc2F)C(=O)O)c2c1OCCC2` [Example 140], with 0.55 nM; and `O=C(N[C@@H](Cc1ccc(-c2c(Cl)cc(F)cc2Cl)c2c1OCCO2)C(=O)O)c1c(Cl)cccc1Cl` [Example 5, (S)-3-(8-(2,6-dichloro-4-fluorophenyl)-2,3-dihydrobenzo[b][1,4]dioxin-5-yl)-2-(2,6-dichlorobenzamido)propanoic acid], with 55.4 nM.
Then `CC[C@@H](Nc1cc(F)c(C(=O)N[C@@H](Cc2ccc(-c3c(C(F)(F)F)cc(C)n(C)c3=O)c3c2COC3)C(=O)O)c(F)c1)C(F)(F)F` [Example 13, (S)-2-(2,6-difluoro-4-(((R)-1,1,1-trifluorobutan-2-yl)amino)benzamido)-3-(7-(1,6-dimethyl-2-oxo-4-(trifluoromethyl)-1,2-dihydropyridin-3-yl)-1,3-dihydroisobenzofuran-4-yl)propanoic acid], with 0.388 nM; and `Cc1nc(-c2ccc(C[C@H](NC(=O)c3c(F)cc(N4CCOC[C@@H]4C(F)(F)F)cc3F)C(=O)O)c3c2C[C@@H](O)C3)c(=O)n(C)c1C` [Example 192], with 0.228 nM.
In the case of `Cc1ncc(-c2ccc(C[C@H](NC(=O)c3c(F)cc(N4CCOC[C@@H]4C(F)(F)F)cc3F)C(=O)O)c3c2OCCO3)c(=O)n1C` [Example 177], the EC50 was found to be 0.593 nM.
For `Cc1cc(C(F)(F)F)c(-c2ccc(C[C@H](NC(=O)c3c(F)cc(N[C@H](C)C(F)(F)F)cc3F)C(=O)O)c3c2COC3)c(=O)n1C` [Example 20, (S)-2-(2,6-difluoro-4-(((R)-1,1,1-trifluoropropan-2-yl)amino)benzamido)-3-(7-(1,6-dimethyl-2-oxo-4-(trifluoromethyl)-1,2-dihydropyridin-3-yl)-1,3-dihydroisobenzofuran-4-yl)propanoic acid] the value was 0.242 nM; for `CC[C@@H](Nc1cc(F)c(C(=O)N[C@@H](Cc2ccc(-c3c(C)n(C)c(=O)n(C)c3=O)c3c2CCCO3)C(=O)O)c(F)c1)C(F)(F)F` (single isomer, unassigned) [Example 56], 0.961 nM; for `O=C(N[C@@H](Cc1ccc(-c2cc(F)c(F)cc2OC2CC2)c2c1CCCO2)C(=O)O)c1c(F)cccc1F` [Example 68, (S)-3-(8-(2-cyclopropoxy-4,5-difluorophenyl)chroman-5-yl)-2-(2,6-difluorobenzamido)propanoic acid], 56.5 nM.
For `Cn1cc(C(F)(F)F)nc(-c2ccc(C[C@H](NC(=O)c3c(F)cc(N4CCOC[C@@H]4C(F)(F)F)cc3F)C(=O)O)c3c2OCCC3)c1=O` [Example 123] the value was 0.978 nM; for `O=C(N[C@@H](Cc1ccc(-c2c(Cl)cc(F)cc2Cl)c2c1OCCO2)C(=O)O)c1c(F)cccc1F` [Example 4, (S)-3-(8-(2,6-dichloro-4-fluorophenyl)-2,3-dihydrobenzo[b][1,4]dioxin-5-yl)-2-(2,6-difluorobenzamido)propanoic acid], 26.3 nM; for `O=C(N[C@@H](Cc1ccc(-c2ncc3ccccc3c2Br)c2c1CCCO2)C(=O)O)c1c(F)cccc1F` [Example 65, (S)-3-(8-(4-bromoisoquinolin-3-yl)chroman-5-yl)-2-(2,6-difluorobenzamido)propanoic acid], 19.6 nM.
For `Cc1nc(-c2ccc(C[C@H](NC(=O)c3c(F)cc(N4CCOC[C@@H]4C(F)(F)F)cc3F)C(=O)O)c3c2CN(C)C3)c(=O)n(C)c1C` [Example 205] the value was 1.27 nM; for `O=C(N[C@@H](Cc1ccc(-c2ncccc2C(F)(F)F)c2c1CCCO2)C(=O)O)c1c(F)cc(N[C@H](c2ccccc2)C(F)(F)F)cc1F` [Example 86, (S)-2-(2,6-difluoro-4-(((R)-2,2,2-trifluoro-1-phenylethyl)amino)benzamido)-3-(8-(3-(trifluoromethyl)pyridin-2-yl)chroman-5-yl)propanoic acid], 3.34 nM.
Consider `Cc1cn(C)c(=O)c(-c2ccc(C[C@H](NC(=O)c3c(C)cc(N4CCOC[C@@H]4C(F)(F)F)cc3F)C(=O)O)c3c2OCCC3)n1` [Example 163], for which the EC50 was found to be 0.731 nM.
Then `Cc1cc(C(F)(F)F)c(-c2ccc(C[C@H](NC(=O)c3c(F)cc(N4CCOC[C@@H]4C(F)(F)F)cc3F)C(=O)O)c3c2CCC3)c(=O)n1C` [Example 202], with 0.144 nM; and `Cn1c(=O)n(-c2ccc(C[C@H](NC(=O)c3c(F)cc(N4CCOC[C@@H]4C(F)(F)F)cc3F)C(=O)O)c3c2OCCC3)c(=O)c2ccncc21` [Example 124], with 0.065 nM; and `CC[C@@H](Nc1cc(F)c(C(=O)N[C@@H](Cc2ccc(-c3c(C(F)(F)F)cc(C)n(C)c3=O)c3c2CN(C)CC3)C(=O)O)c(F)c1)C(F)(F)F` [Example 204], with 1.34 nM.
Then `Cc1cc(N2CCOC[C@@H]2C(F)(F)F)cc(F)c1C(=O)N[C@@H](Cc1ccc(-c2c(C)c(C)c(C)n(C)c2=O)c2c1CCCO2)C(=O)O` [Example 151], with 0.144 nM.
Then `Cc1cc(N2CCOC[C@@H]2C(F)(F)F)cc(F)c1C(=O)N[C@@H](Cc1ccc(-c2c(C)nc(C)n(C)c2=O)c2c1CCC2)C(=O)O` [Example 194], with 0.099 nM; and `O=C(N[C@@H](Cc1ccc(-c2c(Cl)cc(F)cc2Cl)c2c1CCCN2)C(=O)O)c1c(F)cccc1F` [Example 101, (S)-3-(8-(2,6-dichloro-4-fluorophenyl)-1,2,3,4-tetrahydroquinolin-5-yl)-2-(2,6-difluorobenzamido)propanoic acid], with 26.9 nM.
